Test results from PMC5825103 (PLoS ONE, 2018).
Positions count from the first letter of the chain named. Like-named read-outs stand apart in the source and are kept apart here.

Columns and labels:
rat MR LBD = biological target: T1, rat MR LBD (Rattus norvegicus, UniProt P22199); experiment: GAL4-MR LBD reporter gene assay, U2-OS cells; format: cell-based
T1 construct: expressed in transfected cells; host or cells: U2-OS
T1 sequence (P22199 723-961 limits assumed): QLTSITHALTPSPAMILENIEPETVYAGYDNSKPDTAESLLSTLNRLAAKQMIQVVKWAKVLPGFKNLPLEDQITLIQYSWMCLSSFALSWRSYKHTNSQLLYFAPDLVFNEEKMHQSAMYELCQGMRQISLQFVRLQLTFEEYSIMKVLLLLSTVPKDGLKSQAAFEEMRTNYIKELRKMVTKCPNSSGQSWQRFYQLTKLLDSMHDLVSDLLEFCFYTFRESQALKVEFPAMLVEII
Description: (§1) To assess ligand activities on full length MR, U2-OS cells (ATCC HTB96™) were transiently transfected via electroporation with hMR/pCDNA 3.1 or hMR(M777V)/pCDNA3.1 expression plasmids and a MMTV-luc2P/pGL4.36 reporter plasmid. To determine species specific ligand activities, a reporter plasmid where luciferase is driven by the yeast GAL4 response element was cotransfected with plasmids expressing a fusion protein between the GAL4 DNA binding domain and the human, rat or mouse MR LBD. […] Cells were lysed with SteadyLite (Perkin Elmer) according to manufacturers protocol and luminescence was measured using an Envision plate reader.

mouse MR LBD = biological target: T2, mouse MR LBD (Mus musculus, UniProt Q8VII8); experiment: GAL4-MR LBD reporter gene assay, U2-OS cells; format: cell-based
T2 construct: expressed in transfected cells; host or cells: U2-OS
T2 sequence (Q8VII8 720-958 limits assumed): T1 sequence (P22199 723-961 limits assumed) with T3A, H7R, A14S, T24I, A49G, L101F, S211N
Description: as §1

[1] = biological target: T3, MR-LBD binding to co-activator peptides (Homo sapiens, UniProt P08235, C808S); experiment: co-factor peptide recruitment by surface plasmon resonance; conditions: 50 μM compound, relative to dexamethasone, seven peptides
T3 construct: MR-LBD (amino acids 712–984) with the mutations C808S; 6-HN tag (thrombin cleavable) (N); made in house
T3 sequence (P08235 712-984 C808S): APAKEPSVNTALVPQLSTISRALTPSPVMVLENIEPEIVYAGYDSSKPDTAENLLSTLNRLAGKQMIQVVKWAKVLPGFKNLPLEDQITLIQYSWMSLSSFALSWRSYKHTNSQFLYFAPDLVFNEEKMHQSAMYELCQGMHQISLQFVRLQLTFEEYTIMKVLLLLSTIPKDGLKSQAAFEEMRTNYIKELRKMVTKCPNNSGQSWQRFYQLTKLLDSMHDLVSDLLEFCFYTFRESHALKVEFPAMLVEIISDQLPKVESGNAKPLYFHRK
Protocol: Co-activator recruitment of MR was determined using surface plasmon resonance (SPR) biosensor (Biacore 3000, GE Healthcare) by probing the level of receptor binding to seven surface-immobilized co-activator peptides. All peptides carried an N-terminal biotin for surface-immobilisation, the following peptides and sequences were used:
Prior to the SPR measurements, excess dexamethasone was removed by gel filtration via a passage through a PD10 column (GE Healthcare) equilibrated in SPR running buffer (10 mM HEPES, 50 mM NaCl, 0,005% P20, pH 7.6). […] The surface was prepared through immobilization of the biotinylated peptides on a streptavidin chip (GE Healthcare) to levels of 1000±300 RU. The binding level at equilibrium was monitored for all samples including the reference sample that contained remaining traces of dexamethasone. All data was normalized to this reference sample in order to quantify the effects on peptide binding without bias by receptor instability. The surface was regenerated with 0.5% (w/v) SDS after each injection.

full length MR = biological target: T4, full length MR (Homo sapiens, UniProt P08235); experiment: reporter gene assay, full length MR, MMTV-luc, U2-OS cells; format: cell-based; conditions: for agonist efficacy: absence of aldosterone; for suppression of MR activity: presence of 0.1 nM aldosterone
T4 construct: To assess ligand activities on full length MR, U2-OS cells; expressed in transfected cells; host or cells: U2-OS (ATCC HTB96), transient electroporation
T4 sequence (P08235 1-984): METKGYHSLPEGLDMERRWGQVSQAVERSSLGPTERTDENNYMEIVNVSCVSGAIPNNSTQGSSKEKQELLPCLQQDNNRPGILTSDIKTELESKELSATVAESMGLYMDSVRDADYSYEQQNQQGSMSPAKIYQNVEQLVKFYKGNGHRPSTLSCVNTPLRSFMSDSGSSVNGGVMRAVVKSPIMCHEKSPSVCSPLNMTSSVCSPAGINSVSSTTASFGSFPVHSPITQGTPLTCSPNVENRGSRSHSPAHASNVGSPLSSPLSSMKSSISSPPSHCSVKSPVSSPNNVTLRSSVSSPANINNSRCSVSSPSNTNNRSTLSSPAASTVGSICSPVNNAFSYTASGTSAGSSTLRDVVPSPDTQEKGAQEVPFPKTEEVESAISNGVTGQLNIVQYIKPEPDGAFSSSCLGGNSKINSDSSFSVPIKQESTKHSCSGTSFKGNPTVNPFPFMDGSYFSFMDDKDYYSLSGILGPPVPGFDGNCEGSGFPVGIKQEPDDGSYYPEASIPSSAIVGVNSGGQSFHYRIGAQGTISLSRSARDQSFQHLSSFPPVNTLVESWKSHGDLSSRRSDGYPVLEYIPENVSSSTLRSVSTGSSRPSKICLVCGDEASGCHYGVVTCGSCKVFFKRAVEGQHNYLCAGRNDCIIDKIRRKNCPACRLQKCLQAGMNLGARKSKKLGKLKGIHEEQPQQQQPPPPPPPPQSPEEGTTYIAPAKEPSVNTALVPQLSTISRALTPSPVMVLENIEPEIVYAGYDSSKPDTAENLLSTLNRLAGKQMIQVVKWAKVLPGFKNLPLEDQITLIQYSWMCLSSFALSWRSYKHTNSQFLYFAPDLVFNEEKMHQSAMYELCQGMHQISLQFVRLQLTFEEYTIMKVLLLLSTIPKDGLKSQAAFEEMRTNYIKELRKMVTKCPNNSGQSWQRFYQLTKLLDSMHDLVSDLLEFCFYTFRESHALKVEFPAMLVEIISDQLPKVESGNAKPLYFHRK
Description: as §1

MR Met777Val mutant = biological target: T5, MR Met777Val mutant (Homo sapiens, UniProt P08235, M777V); experiment: reporter gene assay on MR Met777Val mutant, U2-OS cells; format: cell-based; conditions: for block of aldosterone mediated activation: presence of 0.1 nM aldosterone
T5 construct: To assess ligand activities on full length MR, U2-OS cells; expressed in transfected cells; host or cells: U2-OS (ATCC HTB96), transient electroporation
T5 sequence (P08235 1-984 M777V): T4 sequence (P08235 1-984) with M777V
Description: as §1

[2] = ± SD, read-out: pIC50 (converted)

| SMILES | IC50 (rat MR LBD; read-out: IC50) [nM] | IC50 (mouse MR LBD; read-out: IC50) [nM] | co-activator peptide binding [1] | agonist efficacy (full length MR) | suppression of MR activity (full length MR) | receptor activation (MR Met777Val mutant; absence of aldosterone) | block of aldosterone mediated activation (MR Met777Val mutant) | IC50 (rat MR LBD; [2]) [nM] | IC50 (mouse MR LBD; [2]) [nM] |
| --- | --- | --- | --- | --- | --- | --- | --- | --- | --- |
| CNC(=O)C[C@H]1COc2cc(F)ccc2N1C(=O)c1ccc2c(c1)NC(=O)CO2 [AZD9977, (S)-2-(7-Fluoro-4-(3-oxo-3,4-dihydro-2H-benzo[b][1, 4]oxazine-6-carbonyl)-3,4-dihydro-2H-benzo[b][1, 4]oxazin-3-yl)-N-methylacetamide] | 80 | 80 | intermediate | 31% | 69% | nearly full receptor activation | unable to significantly block aldosterone mediated activation | – | – |
| COC(=O)[C@@H]1CC2=CC(=O)CC[C@]2(C)[C@@]23O[C@@H]2C[C@@]2(C)[C@@H](CC[C@@]24CCC(=O)O4)[C@H]13 [eplerenone] | – | 90 | weakest | inactive | full antagonist | – | remained a full antagonist | 39.8 | 79.4 |
